# Marks after values point to notes of the source that are not given here.
# Columns and labels:
# plasma hemostasis [1] = assay: Partial activated thromboplastin time (PATT) after intravenous administration; type: in vivo, rabbit
# Procedure: (§1) The static parameters of the blood and plasma coagulation (partial activated thromboplastin time, thrombin time, maximum coagulation activity (test for auto coagulation) were determined using the Behnk Electronic coagulometer (Germany). The operating principle of this instrument is based on the fact that the formed blood clot breaks the contacts of the pulse counter in the flask-pin circuit, said pin permanently oscillating in a vertical plane. The moment of formation of the clot is registered by stopping the stop watch hand.
# (§2) The measurements were effected at a constant temperature of 37° C. maintained by a temperature control unit.
# [2] = Chronic toxicity of suppositories: biochemical indexes of blood serum; type: in vivo, rats; settings: rat, in vivo;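 note: inbred rats dosed rectally with softened suppositories, controls given matching volumes of sterile medical liquid paraffin, serum sampled one month into a two-month dosing course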
# Procedure: The experiments were conducted on inbred rats.
# Two doses of preparations used in the experiments: 50 mg/kg and 500 mg/kg. Before the administration, the suppositories were softened by heating in a glass water bath at a temperature of 38-39° C., the soft mass was collected in tuberculin syringe in a volume of 1 ml, a needle with oliva was attached to the syringe, and the preparatory mass was introduced into the rectum of the animal for a depth of 1.5-2.0 cm. The animals of the control group were administered with sterile medical liquid paraffin in a volume corresponding to the volume of the investigated suppository. A complete course of administration of drugs to the animals was two months. A complex of laboratory diagnostic investigations was carried out one month after the beginning of the administration of the preparation to the animal—in a middle of the course (8 animals), two months after ending the course (8 animals) and three months after ending the recovery period of one month (8 animals). The mass of the body of the rats in the first month of administration of the preparation was determined weekly, and then once in two weeks. On the basis of the dynamics of an index of the mass of the animal body, the volume of preparation being administered was corrected taking into account the test dose.
# plasma hemostasis [3] = assay: Thrombin time after intravenous administration; type: in vivo, rabbit
# Procedure: The investigations were performed on 72 rabbits of the “Chinchilla” breed with a mass of 2.5±0.3 kg, who were administered which solutions of compounds 2, 15, 21, 37 in doses of 15, 30 and 60 mg/kg intravenously. The experiments included the thrombin-test (series No. 7300) and the coagulability-test (series No. 5000) purchased from the scientific-and-production association (SPA) “Renam”, thromboplastin (series No. 240600) and calcium chloride purchased from the SPA “MedioLab”
# as §1, §2
# The “thrombin time” characterizes the rate of transformation of fibrinogen into fibrin. It was determined by measuring the coagulation time of plasma deprived of thrombocytes under the effect of thrombin standardized by the control plasma.
# 0.2 ml of a thrombin solution was added to 0.2 ml of the test blood plasma of experimental animals, from whom the blood was taken 15, 30, 60 and 120 minutes after the intravenous administration of compounds 2, 15, 21, 37 according to the invention in doses of 15, 30, 60 mg/kg incubated for 1 minute at a temperature of 37° C. and the time of formation of clot T2 in seconds in a coagulometer of the Behnk Electronic Company (Germany).
# thrombocytes = assay: ADP-induced aggregation of thrombocytes in vitro (Born method, plasma enriched with thrombocytes); type: cell-based, rabbit; settings: 3-minute incubation, ADP 10^−5 M
# Procedure: The aggregation of thrombocytes was studied by the Born method based on determination of the changes in the optical density of plasma enriched with thrombocytes after its incubation with an aggregation inductor.
# Adenozinediphosphoric acid (ADP) was selected as an aggregation inductor, which in fact is an aggregation generator. Use was made of a sample (registration number 885) of the Sigma Diagnostics Company (USA) in final concentration of 10^−5 M.
# The experiments were carried out on male rabbits of the “Chinchilla” breed having a mass of 2.7±0.3 kg. 18-24 hours prior to the experiment they were deprived of feed while preserving free access to water.
# To obtain plasma enriched with thrombocytes, blood was taken from a cut of a marginal vein of the rabbit ear, the sample was stabilized with 3.8% of sodium citrate solution in a ratio of 9:1 and centrifuged at 200 g (1000 rev/min) for 10 minutes. The top supernatant layer enriched with thrombocytes was transferred by an automatic dropper into a silicone test tube and kept at 37° C. The plasma enriched with thrombocytes contained, on the average, […]. If this content exceeded the specified 3×10^8 blood platelets in 1 liter, this sample was diluted to the necessary concentration with plasma deprived of thrombocytes, which was obtained by centrifuging blood at 650 g during 10 minutes.
# The measurements of the optical density of the samples were made on two-channel aggregometer of the “Chronolog” Company (USA). A flask containing 490 mkl of plasma rich with thrombocytes was placed in a device, into which a magnetic agitator covered with Teflon was lowered. The index of maximum amplitude of aggregation (MA) in percent of a fall of the plasma optical density under effect of the aggregation inductor was recorded. The control index MA of plasma was compared with the MA of plasma incubated for 3 minutes with different concentrations of the compounds: from 10^−3 to 10^−7 in vitro experiments or with plasma obtained 15, 30, 60 and 120 minutes after intravenous administration of different doses of the compounds in vivo experiments.
# The process of aggregation of thrombocytes was recorded with the help of a computer; on the monitor screen the there were depicted curves reflecting changes of the optical density of the plasma enriched which was taken as a standard 100% compared to the optical density of the non-thrombocyte plasma taken for 0% content of thrombocytes.
# Under in vitro conditions a flask was filled with blood plasma enriched with thrombocytes, to which an aggregation inductor ADP was added at a concentration of 10^−5 M, incubated for 3 minutes, and then the compounds according to the invention were introduced directly into the flask. Their action by aggregation of thrombocytes was studied after 3-minute incubation in a wide range of concentrations from 10^−3 to 10^−7 M to minimum concentration of 10^−7M not inducing no effect of suppressing the aggregation.
compound,measurement,setting,value
"Nc1ccnc2c(=O)n([C@@H]3O[C@H](CO)[C@@H](O)[C@H]3O)[nH]c(=O)c12 [Compound 2, 4-amino-7-(β-D-ribofuranosile)pyrido[2,3-d]-6H-pyridazine-5,8-dione]","PATT, T","plasma hemostasis [1]; 15.0 mg/kg intravenously, after 15 minutes, control 37.0 ± 0.2",37.0 ± 0.1 s
same,"PATT, T","plasma hemostasis [1]; 15.0 mg/kg intravenously, after 30 minutes, control 37.0 ± 0.2",37.0 ± 0.2 s
same,"PATT, T","plasma hemostasis [1]; 15.0 mg/kg intravenously, after 60 minutes, control 37.0 ± 0.2",36.9 ± 0.1 s
same,"PATT, T","plasma hemostasis [1]; 15.0 mg/kg intravenously, after 120 minutes, control 37.0 ± 0.2",37.0 ± 0.3 s
same,"PATT, T","plasma hemostasis [1]; 30.0 mg/kg intravenously, after 15 minutes, control 33.3 ± 0.8",32.7 ± 0.5 s
same,"PATT, T","plasma hemostasis [1]; 30.0 mg/kg intravenously, after 30 minutes, control 33.3 ± 0.8",32.0 ± 0.1 s
same,"PATT, T","plasma hemostasis [1]; 30.0 mg/kg intravenously, after 60 minutes, control 33.3 ± 0.8",32.2 ± 0.1 s
same,"PATT, T","plasma hemostasis [1]; 30.0 mg/kg intravenously, after 120 minutes, control 33.3 ± 0.8",32.1 ± 0.2 s
same,"PATT, T","plasma hemostasis [1]; 60.0 mg/kg intravenously, after 15 minutes, control 32.5 ± 0.3",32.3 ± 0.2 s
same,"PATT, T","plasma hemostasis [1]; 60.0 mg/kg intravenously, after 30 minutes, control 32.5 ± 0.3",32.4 ± 0.1 s
same,"PATT, T","plasma hemostasis [1]; 60.0 mg/kg intravenously, after 60 minutes, control 32.5 ± 0.3",32.3 ± 0.1 s
same,"PATT, T","plasma hemostasis [1]; 60.0 mg/kg intravenously, after 120 minutes, control 32.5 ± 0.3",32.4 ± 0.1 s
same,effect on the PATT,"plasma hemostasis [1]; doses 15.0, 30.0, 60.0 mg/kg",do not affect the PATT
same,ALT in blood serum,[2]; 50 mg/kg,10.84 ± 2.02 unit/l
same,AST in blood serum,[2]; 50 mg/kg,20.41 ± 3.06 unit/1
same,Alkalinous phosphatase in blood serum,[2]; 50 mg/kg,42.12 ± 4.23 unit/l
same,Bilirubin in blood serum,[2]; 50 mg/kg,44.38 ± 4.12 mmol/L
same,Cholesterol in blood serum,[2]; 50 mg/kg,2.77 ± 0.71 mmol/L
same,Creatinine in blood serum,[2]; 50 mg/kg,47.38 ± 3.26 mkmol/l
same,Glucose in blood serum,[2]; 50 mg/kg,9.85 ± 0.37 mM
same,Total protein in blood serum,[2]; 50 mg/kg,87.34 ± 5.56 g/L
same,Urea in blood serum,[2]; 50 mg/kg,11.02 ± 0.73 Mkmol/l
same,ALT in blood serum,[2]; 500 mg/kg,11.23 ± 1.70 unit/l
same,AST in blood serum,[2]; 500 mg/kg,20.13 ± 2.95 unit/1
same,Alkalinous phosphatase in blood serum,[2]; 500 mg/kg,43.4 ± 2.12 unit/l
same,Bilirubin in blood serum,[2]; 500 mg/kg,42.56 ± 7.56 mmol/L
same,Cholesterol in blood serum,[2]; 500 mg/kg,2.96 ± 0.52 mmol/L
same,Creatinine in blood serum,[2]; 500 mg/kg,49.87 ± 8.12 mkmol/l
same,Glucose in blood serum,[2]; 500 mg/kg,10.2 ± 0.74 mM
same,Total protein in blood serum,[2]; 500 mg/kg,70.84 ± 7.47 g/L
same,Urea in blood serum,[2]; 500 mg/kg,11.30 ± 0.80 Mkmol/l
same,"thrombin time, T2","plasma hemostasis [3]; 15.0 mg/kg intravenously, after 15 minutes, control 15.8",16.2* s
same,"thrombin time, T2","plasma hemostasis [3]; 15.0 mg/kg intravenously, after 30 minutes, control 15.8",17.0* s
same,"thrombin time, T2","plasma hemostasis [3]; 15.0 mg/kg intravenously, after 60 minutes, control 15.8",16.0* s
same,"thrombin time, T2","plasma hemostasis [3]; 15.0 mg/kg intravenously, after 120 minutes, control 15.8",15.3* s
same,"thrombin time, T2","plasma hemostasis [3]; 30.0 mg/kg intravenously, after 15 minutes, control 14.7",17.8* s
same,"thrombin time, T2","plasma hemostasis [3]; 30.0 mg/kg intravenously, after 30 minutes, control 14.7",18.4* s
same,"thrombin time, T2","plasma hemostasis [3]; 30.0 mg/kg intravenously, after 60 minutes, control 14.7",19.2* s
same,"thrombin time, T2","plasma hemostasis [3]; 30.0 mg/kg intravenously, after 120 minutes, control 14.7",15.3* s
same,"thrombin time, T2","plasma hemostasis [3]; 60.0 mg/kg intravenously, after 15 minutes, control 15.2",16.0* s
same,"thrombin time, T2","plasma hemostasis [3]; 60.0 mg/kg intravenously, after 30 minutes, control 15.2",16.9* s
same,"thrombin time, T2","plasma hemostasis [3]; 60.0 mg/kg intravenously, after 60 minutes, control 15.2",15.9* s
same,"thrombin time, T2","plasma hemostasis [3]; 60.0 mg/kg intravenously, after 120 minutes, control 15.2",15.3* s
same,"MA - fall of optical density of plasma, % to the standard","thrombocytes; 10^−3 M, control 60.8 ± 3.4",51.4 ± 2.7 %
same,"MA - fall of optical density of plasma, % to the standard","thrombocytes; 10^−4 M, control 60.0 ± 2.1",50.4 ± 1.7 %
same,"MA - fall of optical density of plasma, % to the standard","thrombocytes; 10^−5 M, control 52.5 ± 2.1",48.2 ± 1.0 %
same,"MA - drop of optical density, %","thrombocytes; 10^−6 M, control 52.8 ± 1.8",50.1 ± 2.0%
same,"MA - drop of optical density, %","thrombocytes; 10^−7 M, control 51.5 ± 2.1",50.8 ± 2.2%
"O=c1[nH][nH]c(=O)c2ncccc12.[Li] [Compound 6, lithium salt of pyrido[2,3-d]-6H-pyridazine-5,8-dione]","MA - fall of optical density of plasma, % to the standard","thrombocytes; 10^−3 M, control 60.8 ± 3.4",50.0 ± 1.9 %
same,"MA - fall of optical density of plasma, % to the standard","thrombocytes; 10^−4 M, control 60.0 ± 2.1",53.3 ± 2.2 %
same,"MA - fall of optical density of plasma, % to the standard","thrombocytes; 10^−5 M, control 52.5 ± 2.1",47.4 ± 2.0 %
same,"MA - drop of optical density, %","thrombocytes; 10^−6 M, control 52.8 ± 1.8",51.2 ± 3.2%
same,"MA - drop of optical density, %","thrombocytes; 10^−7 M, control 51.5 ± 2.1",50.7 ± 3.2%

# From US8592421B2, “Cyclic bioisosters of purine system derivatives and a pharmaceutical composition based thereon” (priority 2003, dated 2013)
